Test results as given in patent EP0212404A1, “7-oxo-4-thia-1-azabicyclo [3.2.0] hept-2-ene derivatives” (HOECHST AKTIENGESELLSCHAFT, priority 1985, dated 1987).
≈ marks a conversion by molar mass, not a printed value. Where two headings read alike, the source gives them in different places.

Columns and labels:
Assay in all cases: agar dilution test (MIC)
Type in all cases: cell-based
E.coli 055 = settings: Escherichia coli, Mueller Hinton agar, 16 to 18 hours at 37°C, read-out: Minimum Inhibitory Concentration (MIC)
Experimental: (§1) The antimicrobial activity was determined by measuring the Minimum Inhibitory Concentration (MIC). The MIC of the compounds was determined by a standard test, the "agar dilution test" according to Lorian (Antibiotics in Laboratory Medicine, Williams and Wilkins, Baltimore/London 1980) as follows:
(§2) A two-fold decreasing concentration series of each compound was prepared in Petri dishes containing 15 ml of Mueller Hinton agar (Difco). One Petri dish containing only the Mueller Hinton agar served as control for bacterial growth. Each Petri dish was inoculated with a multi-point inoculator (Denley), which transferred 0.6µl of a 1:100 diluted 18 hours culture of the appropriate test bacterium. After 16 to 18 hours of incubation at 37°C the Petri dishes were examined for growth of bacteria. The lowest concentration of the compound which causes complete inhibition of growth is taken as the MIC except that the growth of a single colony or a haze is not taken as evidence of qrowth.

E.coli 1507E = settings: Escherichia coli, read-out: Minimum Inhibitory Concentration (MIC)
Experimental: as §1, §2

Staph.aureus SG511 = settings: Staphylococcus aureus, Mueller Hinton agar, 16 to 18 hours at 37°C, read-out: Minimum Inhibitory Concentration (MIC)
Experimental: as §1, §2

Str.pyogenes 308A = settings: Streptococcus pyogenes, Mueller Hinton agar, 16 to 18 hours at 37°C, read-out: Minimum Inhibitory Concentration (MIC)
Experimental: as §1, §2

Ent.cloacae P99 = settings: Enterobacter cloacae, Mueller Hinton agar, 16 to 18 hours at 37°C, read-out: Minimum Inhibitory Concentration (MIC)
Experimental: as §1, §2

Staph.aureus 503 = settings: Staphylococcus aureus, Mueller Hinton agar, 16 to 18 hours at 37°C, read-out: Minimum Inhibitory Concentration (MIC)
Experimental: as §1, §2

Bac.subt. ATCC6633 = settings: Mueller Hinton agar, 16 to 18 hours at 37°C, read-out: Minimum Inhibitory Concentration (MIC)
Experimental: as §1, §2

Kl.aerog. 1522E = settings: read-out: Minimum Inhibitory Concentration (MIC)
Experimental: as §1, §2

E.coli TEM = settings: Escherichia coli, read-out: Minimum Inhibitory Concentration (MIC)
Experimental: as §1, §2

Staph.aureus 285 = settings: Staphylococcus aureus, Mueller Hinton agar, 16 to 18 hours at 37°C, read-out: Minimum Inhibitory Concentration (MIC)
Experimental: as §1, §2

E.coli DC0 = settings: Escherichia coli, Mueller Hinton agar, 16 to 18 hours at 37°C, read-out: Minimum Inhibitory Concentration (MIC)
Experimental: as §1, §2

Str.pyogenes 77A = settings: Streptococcus pyogenes, Mueller Hinton agar, 16 to 18 hours at 37°C, read-out: Minimum Inhibitory Concentration (MIC)
Experimental: as §1, §2

Ent.cloacae 1321E = settings: Enterobacter cloacae, read-out: Minimum Inhibitory Concentration (MIC)
Experimental: as §1, §2

Str.faecium D = settings: Enterococcus faecium, read-out: Minimum Inhibitory Concentration (MIC)
Experimental: as §1, §2

Kl.aerog. 1082E = settings: Mueller Hinton agar, 16 to 18 hours at 37°C, read-out: Minimum Inhibitory Concentration (MIC)
Experimental: as §1, §2

E.coli DC2 = settings: Escherichia coli, Mueller Hinton agar, 16 to 18 hours at 37°C, read-out: Minimum Inhibitory Concentration (MIC)
Experimental: as §1, §2

E.coli KN126 = settings: Escherichia coli, Mueller Hinton agar, 16 to 18 hours at 37°C, read-out: Minimum Inhibitory Concentration (MIC)
Experimental: as §1, §2

Salm.typh. MZII = settings: Mueller Hinton agar, 16 to 18 hours at 37°C, read-out: Minimum Inhibitory Concentration (MIC)
Experimental: as §1, §2

[1] = E.coli 1507E, Mueller Hinton agar, 16 to 18 hours at 37°C
[2] = Kl.aerog. 1522E, Mueller Hinton agar, 16 to 18 hours at 37°C
[3] = Ent.cloacae 1321E, Mueller Hinton agar, 16 to 18 hours at 37°C
[4] = Str.faecium D, Mueller Hinton agar, 16 to 18 hours at 37°C

SMILES	MIC (E.coli 055)	MIC (E.coli 1507E; [1])	MIC (Staph.aureus SG511)	MIC (Str.pyogenes 308A)	MIC (Ent.cloacae P99)	MIC (Staph.aureus 503)	MIC (Bac.subt. ATCC6633)	MIC (Kl.aerog. 1522E; [2])	MIC (E.coli TEM)	MIC (Staph.aureus 285)	MIC (E.coli DC0)	MIC (Str.pyogenes 77A)	MIC (Ent.cloacae 1321E; [3])	MIC (Str.faecium D; [4])	MIC (Kl.aerog. 1082E)	MIC (E.coli DC2)	MIC (E.coli KN126)	MIC (E.coli 1507E; 1507E)	MIC (Ent.cloacae 1321E; 1321E)	MIC (Salm.typh. MZII)	also measured
C[C@@H](O)[C@H]1C(=O)N2C(C(=O)O)=C(c3cccc(NC=O)c3)S[C@H]12 [Example 3-NHCHO, 3-(3-formylaminophenyl)-6-(1-hydroxyethyl)-7-oxo-4-thia-l-azabicyclo[3.2.0]hept-2-ene 2-carboxylic acid]	0.39 µg/mL (≈ 1.17 µM)	0.78 µg/mL (≈ 2.33 µM)	0.1 µg/mL (≈ 0.299 µM)	< 0.025 µg/mL	12.5 µg/mL (≈ 37.4 µM)	0.19 µg/mL (≈ 0.568 µM)	0.1 µg/mL (≈ 0.299 µM)	0.39 µg/mL (≈ 1.17 µM)	0.78 µg/mL (≈ 2.33 µM)	0.19 µg/mL (≈ 0.568 µM)	1.56 µg/mL (≈ 4.67 µM)	< 0.025 µg/mL	0.39 µg/mL (≈ 1.17 µM)	1.56 µg/mL (≈ 4.67 µM)	0.39 µg/mL (≈ 1.17 µM)	0.39 µg/mL (≈ 1.17 µM)	0.39 µg/mL (≈ 1.17 µM)				
CSc1cccc(C2=C(C(=O)O)N3C(=O)[C@H]([C@@H](C)O)[C@H]3S2)c1 [Example 3-SCH3]	3.13 µg/mL (≈ 9.28 µM)		0.1 µg/mL (≈ 0.296 µM)	< 0.05 µg/mL	50 µg/mL (≈ 148 µM)	0.19 µg/mL (≈ 0.563 µM)	0.05 µg/mL (≈ 0.148 µM)		6.25 µg/mL (≈ 18.5 µM)	0.19 µg/mL (≈ 0.563 µM)	12.5 µg/mL (≈ 37 µM)	< 0.05 µg/mL		1.56 µg/mL (≈ 4.62 µM)	0.39 µg/mL (≈ 1.16 µM)	0.39 µg/mL (≈ 1.16 µM)	6.25 µg/mL (≈ 18.5 µM)	6.25 µg/mL (≈ 18.5 µM)	6.25 µg/mL (≈ 18.5 µM)		MIC (Kl.aerog. 1522E): 6.25 µg/mL (≈ 18.5 µM)
C[C@@H](O)[C@H]1C(=O)N2C(C(=O)O)=C(c3cccc(C(N)=O)c3)S[C@H]12 [Example 3-CONH2, 5R,3-(3-aminocarbonylphenyl)-6S-(1R-hydroxyethyl)-7-oxo-4-thia-l-azabicyclo[3.2.0]hept-2-ene-2-carboxylate]	0.1 µg/mL (≈ 0.299 µM)	0.19 µg/mL (≈ 0.568 µM)	0.05 µg/mL (≈ 0.15 µM)	0.006 µg/mL (≈ 0.0179 µM)	1.56 µg/mL (≈ 4.67 µM)	0.1 µg/mL (≈ 0.299 µM)	0.05 µg/mL (≈ 0.15 µM)	0.19 µg/mL (≈ 0.568 µM)	0.19 µg/mL (≈ 0.568 µM)	0.1 µg/mL (≈ 0.299 µM)	0.39 µg/mL (≈ 1.17 µM)	0.013 µg/mL (≈ 0.0389 µM)	0.1 µg/mL (≈ 0.299 µM)	1.56 µg/mL (≈ 4.67 µM)	0.1 µg/mL (≈ 0.299 µM)	0.1 µg/mL (≈ 0.299 µM)	0.1 µg/mL (≈ 0.299 µM)				
C[C@@H](O)[C@H]1C(=O)N2C(C(=O)O)=C(c3ccc(F)cc3)S[C@H]12 [Example 4-F]	1.56 µg/mL (≈ 5.04 µM)		0.19 µg/mL (≈ 0.614 µM)	< 0.05 µg/mL	25 µg/mL (≈ 80.8 µM)	0.19 µg/mL (≈ 0.614 µM)	0.1 µg/mL (≈ 0.323 µM)	12.5 µg/mL (≈ 40.4 µM)	6.25 µg/mL (≈ 20.2 µM)	0.19 µg/mL (≈ 0.614 µM)	25 µg/mL (≈ 80.8 µM)	< 0.05 µg/mL			1.56 µg/mL (≈ 5.04 µM)	1.56 µg/mL (≈ 5.04 µM)	6.25 µg/mL (≈ 20.2 µM)	6.25 µg/mL (≈ 20.2 µM)	3.13 µg/mL (≈ 10.1 µM)	3.13 µg/mL (≈ 10.1 µM)	MIC (Str.faecium D): 3.13 µg/mL (≈ 10.1 µM)
CSc1ccc(C2=C(C(=O)O)N3C(=O)[C@H]([C@@H](C)O)[C@H]3S2)cc1 [Example 4-SCH3]	6.25 µg/mL (≈ 18.5 µM)	25 µg/mL (≈ 74.1 µM)		< 0.05 µg/mL	50 µg/mL (≈ 148 µM)	0.19 µg/mL (≈ 0.563 µM)	0.1 µg/mL (≈ 0.296 µM)	25 µg/mL (≈ 74.1 µM)	25 µg/mL (≈ 74.1 µM)	0.19 µg/mL (≈ 0.563 µM)	50 µg/mL (≈ 148 µM)	< 0.05 µg/mL		3.13 µg/mL (≈ 9.28 µM)	0.78 µg/mL (≈ 2.31 µM)	0.78 µg/mL (≈ 2.31 µM)	12.5 µg/mL (≈ 37 µM)		12.5 µg/mL (≈ 37 µM)	12.5 µg/mL (≈ 37 µM)	
